Reference: the NIST ThermoML archive (doi:10.1021/je800017j)

Experiment: xn = mol fraction of the nth substance listed
Conditions: Liquid, Vibrating tube method

C=CC [propene] + CC(C)O
Conditions	mass density [kg/m3]
300.11 K, 966.7 kPa, x1 = 0.5201	644.49
300.11 K, 1373.3 kPa, x1 = 0.5201	645.21
300.11 K, 1835.6 kPa, x1 = 0.5201	645.98
300.11 K, 2340.9 kPa, x1 = 0.5201	646.83
300.11 K, 2812.4 kPa, x1 = 0.5201	647.62
300.11 K, 3330.1 kPa, x1 = 0.5201	648.49
300.11 K, 3817.5 kPa, x1 = 0.5201	649.27
300.11 K, 4386.1 kPa, x1 = 0.5201	650.18
300.11 K, 4873.7 kPa, x1 = 0.5201	650.95
300.11 K, 5375.2 kPa, x1 = 0.5201	651.72
300.11 K, 5888.8 kPa, x1 = 0.5201	652.52
300.11 K, 6442 kPa, x1 = 0.5201	653.35
300.11 K, 6942.8 kPa, x1 = 0.5201	654.09
300.11 K, 7498.2 kPa, x1 = 0.5201	654.9
300.11 K, 8104.7 kPa, x1 = 0.5201	655.77
300.11 K, 8671.8 kPa, x1 = 0.5201	656.58
300.11 K, 9226.7 kPa, x1 = 0.5201	657.35
300.11 K, 9787 kPa, x1 = 0.5201	658.16
300.12 K, 1068.5 kPa, x1 = 0.6478	608.06
300.12 K, 1486.5 kPa, x1 = 0.6478	608.93
300.12 K, 1740.6 kPa, x1 = 0.6478	609.48
300.12 K, 2123.8 kPa, x1 = 0.6478	610.19
300.12 K, 2620 kPa, x1 = 0.6478	611.17
300.12 K, 2986.8 kPa, x1 = 0.6478	611.92
300.12 K, 3495.3 kPa, x1 = 0.6478	612.85
300.12 K, 3829 kPa, x1 = 0.6478	613.59
300.12 K, 4193.5 kPa, x1 = 0.6478	614.26
300.12 K, 4542.8 kPa, x1 = 0.6478	614.93
300.12 K, 4905.4 kPa, x1 = 0.6478	615.61
300.12 K, 5263.7 kPa, x1 = 0.6478	616.27
300.12 K, 5634.1 kPa, x1 = 0.6478	616.94
300.12 K, 6011.3 kPa, x1 = 0.6478	617.61
300.12 K, 6395.3 kPa, x1 = 0.6478	618.28
300.12 K, 6788.6 kPa, x1 = 0.6478	618.96
300.12 K, 7165.4 kPa, x1 = 0.6478	619.61
300.12 K, 7558.1 kPa, x1 = 0.6478	620.28
300.12 K, 7960.1 kPa, x1 = 0.6478	620.96
300.12 K, 8377.2 kPa, x1 = 0.6478	621.66
300.12 K, 8785.5 kPa, x1 = 0.6478	622.34
300.12 K, 9234.2 kPa, x1 = 0.6478	623.05
300.12 K, 9682.1 kPa, x1 = 0.6478	623.79
300.14 K, 529.4 kPa, x1 = 0.2011	731.63
300.14 K, 1051.3 kPa, x1 = 0.2011	732.17
300.14 K, 1483.6 kPa, x1 = 0.2011	732.72
300.14 K, 1954.4 kPa, x1 = 0.2011	733.24
300.14 K, 2384 kPa, x1 = 0.2011	733.72
300.14 K, 2798.6 kPa, x1 = 0.2011	734.18
300.14 K, 3273.1 kPa, x1 = 0.2011	734.68
300.14 K, 3740.2 kPa, x1 = 0.2011	735.18
300.14 K, 4186.3 kPa, x1 = 0.2011	735.68
300.14 K, 4728.6 kPa, x1 = 0.2011	736.23
300.14 K, 5235.6 kPa, x1 = 0.2011	736.78
300.14 K, 5767.3 kPa, x1 = 0.2011	737.3
300.14 K, 6274.7 kPa, x1 = 0.2011	737.83
300.14 K, 6832.5 kPa, x1 = 0.2011	738.41
300.14 K, 7291.5 kPa, x1 = 0.2011	738.89
300.14 K, 7811.8 kPa, x1 = 0.2011	739.42
300.14 K, 8296.6 kPa, x1 = 0.2011	739.9
300.14 K, 8810.3 kPa, x1 = 0.2011	740.41
300.14 K, 9337.7 kPa, x1 = 0.2011	740.91
300.14 K, 9886.4 kPa, x1 = 0.2011	741.45
325.05 K, 1613.1 kPa, x1 = 0.5201	613.41
325.05 K, 1977.7 kPa, x1 = 0.5201	614.26
325.05 K, 2359 kPa, x1 = 0.5201	615.15
325.05 K, 2717.2 kPa, x1 = 0.5201	615.98
325.05 K, 3167.8 kPa, x1 = 0.5201	616.93
325.05 K, 3506.1 kPa, x1 = 0.5201	617.74
325.05 K, 3888.8 kPa, x1 = 0.5201	618.59
325.05 K, 4321.6 kPa, x1 = 0.5201	619.52
325.05 K, 4676.7 kPa, x1 = 0.5201	620.29
325.05 K, 5061.4 kPa, x1 = 0.5201	621.12
325.05 K, 5471.8 kPa, x1 = 0.5201	621.94
325.05 K, 5880.1 kPa, x1 = 0.5201	622.78
325.05 K, 6293.6 kPa, x1 = 0.5201	623.65
325.05 K, 6704.3 kPa, x1 = 0.5201	624.42
325.05 K, 7171.7 kPa, x1 = 0.5201	625.34
325.05 K, 7597.4 kPa, x1 = 0.5201	626.18
325.05 K, 8037.5 kPa, x1 = 0.5201	627.02
325.05 K, 8556.5 kPa, x1 = 0.5201	628.02
325.05 K, 9078.1 kPa, x1 = 0.5201	628.97
325.05 K, 9631.3 kPa, x1 = 0.5201	629.98
325.09 K, 810.9 kPa, x1 = 0.2011	703.07
325.09 K, 1218.9 kPa, x1 = 0.2011	703.59
325.09 K, 1608.7 kPa, x1 = 0.2011	704.14
325.09 K, 2001.8 kPa, x1 = 0.2011	704.7
325.09 K, 2383.7 kPa, x1 = 0.2011	705.3
325.09 K, 2827.6 kPa, x1 = 0.2011	705.86
325.09 K, 3159.2 kPa, x1 = 0.2011	706.38
325.09 K, 3707.9 kPa, x1 = 0.2011	707.07
325.09 K, 4123.6 kPa, x1 = 0.2011	707.68
325.09 K, 4528.5 kPa, x1 = 0.2011	708.19
325.09 K, 4925.3 kPa, x1 = 0.2011	708.73

Conditions	mass density [kg/m3]
300.11 K, x1 = 0.5201	644.42
300.12 K, x1 = 0.6478	607.97
300.14 K, x1 = 0.2011	731.63
325.05 K, x1 = 0.5201	613.29
